We go through one compound from US9988430B2, “Stable GLP-1 based GLP-1/glucagon receptor co-agonists” (Novo Nordisk A/S, priority 2014, dated 2018).

The structures appear in SMILES notation. *1 amine or outer side, *2 acyl side, *3 side chain or, on linkers, in order; H or OH if unused. Where a SMILES comes first, the peptide text is derived from it. Side-chain parts run from the residue outwards. [ ]: non-standard residue; d: D form. The star is where a group is joined. C18 diacid = O=C(O)CCCCCCCCCCCCCCCCC(=O)*; γGlu = O=C(O)[C@H](CCC(=O)[*:2])N[*:1]; Desaminohistidyl = O=C(CCc1c[nH]cn1)*; AEEA = NCCOCCOCC(=O)O; Aib = CC(C)(N)C(=O)O

One may read the IC50 as the concentration at which inhibition is half-maximal.

One series addresses T1, human GLP-1 receptor (Homo sapiens, UniProt P43220).
T1 construct: expressed in transfected cells; host or cells: membranes of BHK cells, parent line BHKTS13, clone FCW467-12A
The series can be described thus: Assay (II)(a): GLP-1 receptor binding, [125I]GLP-1 displacement, SPA on BHK membranes. The settings on record: displacement of [125I]GLP-1, membranes with human GLP-1 receptor; read-out: IC50 GLP-1R. In a few lines: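 Membranes from BHK cells expressing human GLP-1 receptor with WGA SPA beads, [125I]GLP-1(7-36)NH2 (480 pM added solution) and compound in HEPES pH 7.4 buffer with EGTA, MgCl2, Tween 20. Incubated 2 h at 30° C; SPA counts fitted by non-linear regression to IC50 in nM.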
In general terms: Displacement assays read how much labelled ligand stays bound in the presence of the test substance.

Series [1] is described as follows: Assay (III): ThT fibrillation assay for physical stability. It is filed as physicochemical. The settings on record: pH 7.5, 10 mM HEPES buffer, 37° C., shaking 960 rpm. An excerpt:
Assay (III): ThT Fibrillation Assay for the Assessment of Physical Stability of Peptide Compositions
The purpose of this assay is to assess the physical stability of the GLP-1 derivatives of the invention in aqueous solutions.
Low physical stability of a peptide may lead to amyloid fibril formation, which is observed as well-ordered, thread-like macromolecular structures in the sample, which eventually may lead to gel formation. This has traditionally been measured by visual inspection of the sample. However, that kind of measurement is very subjective and depending on the observer. Therefore, the application of a small molecule indicator probe is much more advantageous. Thioflavin T (ThT) is such a probe and has a distinct fluorescence signature when binding to fibrils [Naiki et al. (1989) Anal. Biochem. 177, 244-249; LeVine (1999) Methods. Enzymol. 309, 274-284]. […]
Here, as depicted in FIG. 1, F is the ThT fluorescence at the time t. The constant t0 is the time needed to reach 50% of maximum fluorescence. The two important parameters describing fibril formation are the lag-time calculated by t0−2τ and the apparent rate constant kapp 1/τ. […]
Incubation at given temperature, shaking and measurement of the ThT fluorescence emission were done in a Fluoroskan Ascent FL fluorescence platereader (Thermo Labsystems). […]

T1 sequence (P43220 24-463): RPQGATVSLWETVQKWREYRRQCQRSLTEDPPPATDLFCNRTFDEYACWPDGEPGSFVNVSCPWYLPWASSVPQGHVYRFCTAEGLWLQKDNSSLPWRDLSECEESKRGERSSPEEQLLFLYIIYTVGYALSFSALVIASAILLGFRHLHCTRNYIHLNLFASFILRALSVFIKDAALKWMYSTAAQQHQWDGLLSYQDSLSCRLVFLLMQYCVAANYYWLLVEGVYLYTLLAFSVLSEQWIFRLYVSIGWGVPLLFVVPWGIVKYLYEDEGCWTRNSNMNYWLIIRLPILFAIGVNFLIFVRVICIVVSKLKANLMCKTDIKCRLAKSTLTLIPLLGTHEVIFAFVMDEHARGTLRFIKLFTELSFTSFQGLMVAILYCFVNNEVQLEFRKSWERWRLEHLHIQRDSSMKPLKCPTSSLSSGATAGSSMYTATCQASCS

As to `CC[C@H](C)[C@H](NC(=O)[C@H](Cc1ccccc1)NC(=O)[C@H](CCC(=O)O)NC(=O)[C@H](CCCNC(=N)N)NC(=O)[C@H](C)NC(=O)[C@H](C)NC(=O)[C@H](CCC(N)=O)NC(=O)[C@H](CCCCNC(=O)CC[C@H](NC(=O)CC[C@H](NC(=O)COCCOCCNC(=O)COCCOCCNC(=O)CC[C@H](NC(=O)CCCCCCCCCCCCCCCCC(=O)O)C(=O)O)C(=O)O)C(=O)O)NC(=O)[C@H](CCC(=O)O)NC(=O)[C@H](CC(C)C)NC(=O)[C@H](Cc1ccc(O)cc1)NC(=O)[C@H](CCCCN)NC(=O)[C@H](CO)NC(=O)[C@@H](NC(=O)[C@H](CC(=O)O)NC(=O)[C@H](CO)NC(=O)[C@@H](NC(=O)[C@H](Cc1ccccc1)NC(=O)[C@@H](NC(=O)CNC(=O)[C@H](Cc1c[nH]cn1)NC(=O)C(C)(C)NC(=O)CCc1c[nH]cn1)[C@@H](C)O)[C@@H](C)O)C(C)C)C(=O)N[C@@H](C)C(=O)N[C@@H](Cc1c[nH]c2ccccc12)C(=O)N[C@@H](CC(C)C)C(=O)N[C@@H](CC(C)C)C(=O)N[C@@H](CCCCN)C(=O)NCC(=O)NCC(=O)NCC(=O)O` [Example 13, N^ε22-[(4S)-4-carboxy-4-[[(4S)-4-carboxy-4-[[2-[2-[2-[[2-[2-[2-[[(4S)-4-carboxy-4-(17-carboxyheptadecanoylamino)butanoyl]amino]ethoxy]ethoxy]acetyl]amino]ethoxy]ethoxy]acetyl]amino]butanoyl]amino]butanoyl]-[Imp7,Aib8,His9,Lys18,Lys22,Arg26,Leu33,Gly36]-GLP-1-(7-37)-peptide] (Desaminohistidyl-[Aib]HGTFTSDVSKYLEK([γGlu-γGlu-AEEA-AEEA-γGlu-C18 diacid])QAAREFIAWLLKGGG-OH), on human GLP-1 receptor, the IC50 amounted to 0.5 nM. The “ThT assay pH 7.5: Lag time” value in series [1] worked out at 45.0 h.
